{"source": "patent US20090291153A1", "about": "“Health food, Method for producing the same and dried Product and Extract” (priority 2004, published 2009)", "key": {"[1]": {"tested_on": "K-ras-NRK cells", "experiment": "Morphological change of K-ras-NRK cells", "type": "cell-based", "conditions": "final concentration 0.1 μg/ml, three days, FIG. 4", "from_the_text": "Conophylline is known to induce a morphological change of K-ras-NRK cells. Thus, it was examined whether an extract of Ervatamia microphylla leaves induces morphological changes of K-ras-NRK cells. It is also known that leaves of the Malaysian Tabernaemontana contains conophylline (Org. Biomol. Chem. 1: 1292-1297, 2003). Thus, it was examined that whether an extract of leaves of crape jasmine, the Japanese Tabernaemontana divaricata, also induces morphological changes in K-ras-NRK cells. An extract of each plant was prepared, in the same manner as described in Example 1, by extracting the active ingredient contained in the leaves with methanol, then removing solids by suction filtration, followed by concentring and drying, and dissolving the resulting powder into methanol.\n500 μl of a suspension ([…] per culture medium (DMEM containing 5% FBS, 0.6 g/l glutamine, 0.2 g/l kanamycin, 2.25 g/l NaHCO3)) of K-Ras-NRK cells was added to each well of 24-well plastic plates at 2.0×10^4 cells/well, and the plates were incubated at 37° C. under 5% CO2. The next day, conophylline (final concentration: 0.1 μg/ml), an extract of Ervatamia microphylla leaves (final concentration: 10 μg/ml), and an extract of crape jasmine leaves (final concentration: 10 μg/ml) were added to the culture medium, which was incubated at 37° C. under the condition of 5% CO2 for three days. […]"}, "[2]": {"tested_on": "streptozotocin-induced diabetic rats", "experiment": "Blood glucose levels of streptozotocin-administered rats", "type": "in vivo, Wistar rats", "conditions": "5 μg/g BW subcutaneously for seven consecutive days from day 1 after streptozotocin 85 μg/g BW i.p.; P<0.05 / P<0.01 vs Control", "experimental": "Ten 1-day-old Wistar rats (purchased from Japan SLC, Shizuoka, Japan) were intraperitoneally injected with streptozotocin (purchased from Wako Pure Chemical Industries, Ltd., dissolved in […] citrate buffer (pH 4.5)) at 85 μg/g BW per rat. Streptozotocin decreases insulin production by destroying pancreatic cells, thereby inducing diabetes. The day of streptozotocin injection was defined as day 0. Starting from the next day (day 1), five rats were injected subcutaneously with a solution (ethanol) of conophylline at 5 μg/g BW for seven consecutive days and their blood glucose levels were measured at a predetermined time daily. Five rats in the control group received the same volume of solvent (control)."}, "[3]": {"tested_on": "AR42J cells (ATCC CRL 1492)", "experiment": "Morphological change of AR42J cells as marker of induced differentiation into insulin-producing cells", "type": "cell-based", "conditions": "final concentration 0.1 μg/ml, three days, FIG. 1B", "experimental": "Thus, it was examined whether an extract of Ervatamia microphylla can induce AR42J cells to differentiate into insulin-producing cells. It should be noted that, since characteristic morphological changes of cells are observed as differentiation into insulin-producing cells is induced, morphological changes in AR42J cell were examined as a marker of differentiation induction in this Example. AR42J cells were cultured in the media prepared by sterilizing Dulbecco modification Eagle' medium (DMEM; Nissui Pharmaceutical Co., Ltd.) by filtration after its pH was adjusted to 7.4 in the presence of 20 mM HEPES-NaOH and adding 0.6 g/l glutamine (Kanto Chemical Co., Inc: Tokyo, Japan), 0.2 g/l kanamycin (Sigma Chemical Science; Sigma: St.Louis, Mo., USA), 100 unit/ml penicillin G (Sigma), 5 mM NaHCO3, and 10% fetal bovine serum (FBS; Sigma).\n500 μl of a suspension of AR42J cells (4.0×10^5 cells/ml per culture medium) was plated into each well of 24-well plastic plates (Corning) at 2×10^5 cells/well and cultured under the conditions of 37° C. and 5% CO2. […]"}, "[4]": {"tested_on": "pancreatic acinar carcinoma AR42J-B13 cells", "conditions": "cited from earlier work"}}, "data": [{"smiles": "CC[C@@]12CC(C(=O)OC)=C3Nc4cc5c(cc4[C@@]34CCN(C[C@H]3O[C@H]31)[C@@H]24)[C@@H]1[C@H](O5)[C@@H](O)[C@@]2(CC)CC(C(=O)OC)=C3Nc4c(cc(O)c(OC)c4OC)[C@@]34CCN1[C@@H]24", "note": "[conophylline]", "values": [{"measurement": "morphological change of K-ras-NRK cells", "setting": "[1]", "result": "undergo a morphological change"}, {"measurement": "blood glucose level compared with the control", "setting": "[2]", "result": "apparent decrease in blood glucose levels"}, {"measurement": "morphological change of AR42J cells (induction of differentiation into insulin-producing cells)", "setting": "[3]", "result": "undergo a morphological change from small spherical cells to flat cells partly with processes"}, {"measurement": "induction of differentiation into insulin-producing cells", "setting": "[4]; Abstracts of the 45th Annual Meeting of the Japan Diabetes Society, 2002", "result": "induces differentiation of pancreatic acinar carcinoma AR42J-B13 cells into insulin-producing cells"}, {"measurement": "insulin release from the induced insulin-producing cells", "setting": "[4]; same literature condition", "result": "do not release insulin from the cells"}]}]}
